From ChEMBL document CHEMBL3352801, “Synthesis and lipid-lowering evaluation of 3-methyl-1H-purine-2,6-dione derivatives as potent and orally available anti-obesity agents” (Eur J Med Chem, 2014) come the findings set out here.

Common to all, as to format: organism-based
Parameters in all cases: route oral
Settings in all cases: in vivo, 672 h

Data set [1] has as its system Mus musculus. As to the kind of experiment: Toxicity in diet-induced obese C57Bl/6 mouse assessed as change in ALT level at 150 mg/kg/day, po for 4 weeks administered with high-fat diet (reference value: 33.00 +/- 18.23 U/L).
The test system of data set [2] is Mus musculus. In words: Toxicity in diet-induced obese C57Bl/6 mouse assessed as change in ALT level at 150 mg/kg/day, po for 4 weeks administered with high-fat diet (reference value: 29.6 +/- 8.29 U/L).
The subject of data set [3] is Mus musculus. As to the kind of experiment: Toxicity in diet-induced obese C57Bl/6 mouse assessed as change in food intake at 150 mg/kg/day, po for 4 weeks administered with high-fat diet.
In data set [4] the test system is Mus musculus. In words: Toxicity in diet-induced obese C57Bl/6 mouse assessed as change in AST level at 150 mg/kg/day, po for 4 weeks administered with high-fat diet (reference value: 125.00 +/- 35.00 U/L).
The test system of data set [5] is Mus musculus. As to the kind of experiment: Toxicity in diet-induced obese C57Bl/6 mouse assessed as change in AST level at 150 mg/kg/day, po for 4 weeks administered with high-fat diet (reference value: 128.00 +/- 20.59 U/L).

For `CN(C)C(=N)N=C(N)N` [METFORMIN], the Activity in the data set with Mus musculus [1] was 21.67 U/L; in the data set with Mus musculus [2], 46.29 U/L; in the data set with Mus musculus [3], “Non-toxic”; in the data set on Mus musculus [4], 110 U/L; in the data set on Mus musculus [5], 172 U/L.
